The supplement of paper PMC9512659

Tests used:
[1] = system: Mycobacterium tuberculosis Erdman (pMV306hsp+LuxG13); experiment: AUC25, normalised area under the dose-response curve up to IC25 (normalised AUC (unitless)); higher = more potent
Method: (§1)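 DiaMOND pairwise dose responses of an equipotent two-drug mixture (1.5-fold, 10-dose series) against autoluminescent M. tuberculosis Erdman in 384-well plates. Growth inhibition was read by OD600 (luminescence for dormancy) in seven media at a constant and a terminal time point; metrics are means of at least biological duplicates. Einf and AUC25 higher = more potent; GRinf lower = more potent; log2FIC negative = synergy.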

[2] = system: Mycobacterium tuberculosis Erdman (pMV306hsp+LuxG13); experiment: Einf, effect of the drug pair at infinite dose (maximum growth inhibition) (fraction inhibition (0-1)); higher = more potent; extreme values may be limits of the assay
Method: as §1

[3] = system: Mycobacterium tuberculosis Erdman (pMV306hsp+LuxG13); experiment: GRinf, normalised growth-rate inhibition at infinite dose (GR value (unitless, negative = killing)); higher = less potent
Method: as §1

[4] = system: Mycobacterium tuberculosis Erdman (pMV306hsp+LuxG13); experiment: log2 fractional inhibitory concentration at 90% inhibition (log2 FIC); higher = more antagonistic
Method: as §1

[5] = system: Mycobacterium tuberculosis Erdman (pMV306hsp+LuxG13); experiment: log2 fractional inhibitory concentration at 50% inhibition (log2 FIC); higher = more antagonistic
Method: as §1

NNC(=O)c1ccncc1 [isoniazid] + CC(=O)NC[C@H]1CN(c2ccc(N3CCSCC3)c(F)c2)C(=O)O1 [sutezolid]
Settings	AUC25, [1]	Einf, [2]	GRinf, [3]	log2 fractional inhibitory concentration, [4]	log2 fractional inhibitory concentration, [5]
growth medium: acidic pH 5.7, glycerol, time point: constant time point	0.0914	0.846	-0.123	–	0.123
growth medium: acidic pH 5.7, glycerol, time point: terminal time point	0.0816	0.972	-0.174	-0.00954	0.103
growth medium: butyrate 5 mM, time point: constant time point	0.0778	0.901	0.0944	–	0.357
growth medium: butyrate 5 mM, time point: terminal time point	0.0468	0.944	0.104	0.0935	0.264
growth medium: cholesterol 0.05 mM, time point: constant time point	0.026	0.988	-0.536	-0.209	0.559
growth medium: cholesterol 0.05 mM, time point: terminal time point	0.113	1	-1	0.0381	0.493
growth medium: cholesterol 0.2 mM (cholesterol-high), time point: constant time point	0.0844	0.994	-0.83	0.448	0.0991
growth medium: cholesterol 0.2 mM (cholesterol-high), time point: terminal time point	0.119	1	-0.942	0.592	-0.302
growth medium: standard 7H9 OADC glycerol, time point: constant = terminal time point (4.2 d)	0.0428	0.956	0.0933	-0.586	-0.00832
growth medium: valerate 0.1%, time point: constant time point	0.0744	0.872	-0.342	–	1.2
growth medium: valerate 0.1%, time point: terminal time point	0.0761	0.982	-0.0769	0.724	0.633

growth medium: hypoxic dormancy (butyrate + nitrate), then recovery
Settings	AUC25, [1]	Einf, [2]	GRinf, [3]	log2 fractional inhibitory concentration, [4]	log2 fractional inhibitory concentration, [5]
time point: constant time point	0.0513	0.987	0.3	-0.281	0.243
time point: terminal time point	0.0273	0.958	0.448	-0.485	0.741

NNC(=O)c1ccncc1 [isoniazid] + CC(C)=CCC/C(C)=C/CNCCNC1C2CC3CC(C2)CC1C3 [SQ109]
Settings	AUC25, [1]	Einf, [2]	GRinf, [3]	log2 fractional inhibitory concentration, [4]	log2 fractional inhibitory concentration, [5]
growth medium: butyrate 5 mM, time point: constant time point	0.0624	0.897	0.0429	–	0.35
growth medium: butyrate 5 mM, time point: terminal time point	0.0434	0.944	0.0572	0.00828	0.29
growth medium: cholesterol 0.05 mM, time point: constant time point	0.1	0.84	-0.682	–	1.02
growth medium: cholesterol 0.2 mM (cholesterol-high), time point: constant time point	0.0635	0.999	-0.997	0.434	0.5
growth medium: cholesterol 0.2 mM (cholesterol-high), time point: terminal time point	0.0743	1	-0.87	0.311	0.189
growth medium: standard 7H9 OADC glycerol, time point: constant = terminal time point (4.2 d)	0.0551	0.858	0.218	–	0.45
growth medium: valerate 0.1%, time point: constant time point	0.0611	0.964	-0.00837	0.14	0.052
growth medium: valerate 0.1%, time point: terminal time point	0.0646	0.968	-0.0113	0.00427	0.109

growth medium: hypoxic dormancy (butyrate + nitrate), then recovery
Settings	AUC25, [1]	Einf, [2]	GRinf, [3]	log2 fractional inhibitory concentration, [4]	log2 fractional inhibitory concentration, [5]
time point: constant time point	0.0841	0.994	-0.408	0.0195	-0.42
time point: terminal time point	0.0403	0.96	0.13	-0.76	-0.641

COc1c(N2C[C@@H]3CCCN[C@@H]3C2)c(F)cc2c(=O)c(C(=O)O)cn(C3CC3)c12 [moxifloxacin] + CC(=O)NC[C@H]1CN(c2ccc(N3CCSCC3)c(F)c2)C(=O)O1 [sutezolid]
Settings	AUC25, [1]	Einf, [2]	GRinf, [3]	log2 fractional inhibitory concentration, [4]	log2 fractional inhibitory concentration, [5]
growth medium: acidic pH 5.7, glycerol, time point: constant time point	0.153	0.884	-0.618	–	-0.766
growth medium: acidic pH 5.7, glycerol, time point: terminal time point	0.126	0.994	-0.27	0.0336	-0.628
growth medium: butyrate 5 mM, time point: constant time point	0.0856	0.921	0.0433	–	2.18
growth medium: butyrate 5 mM, time point: terminal time point	0.0636	0.96	0.0229	2.06	1.99
growth medium: cholesterol 0.05 mM, time point: constant time point	0.0609	0.744	-0.918	–	0.274
growth medium: cholesterol 0.2 mM (cholesterol-high), time point: constant time point	0.0941	1	-0.886	-0.0409	-0.358
growth medium: cholesterol 0.2 mM (cholesterol-high), time point: terminal time point	0.12	1	-0.872	0.362	-0.612
growth medium: standard 7H9 OADC glycerol, time point: constant = terminal time point (4.2 d)	0.0573	0.969	0.0204	-0.545	-0.0683
growth medium: valerate 0.1%, time point: constant time point	0.097	0.857	-0.0498	–	0.387
growth medium: valerate 0.1%, time point: terminal time point	0.0564	0.963	-0.0149	-0.156	0.257

growth medium: hypoxic dormancy (butyrate + nitrate), then recovery
Settings	AUC25, [1]	Einf, [2]	GRinf, [3]	log2 fractional inhibitory concentration, [4]	log2 fractional inhibitory concentration, [5]
time point: constant time point	0.0806	0.95	0.218	-1.18	0.0759
time point: terminal time point	0.0478	0.902	0.508	0.502	0.726
